Peptide text beside a SMILES is read from it.
Assays:
HLA-C0602 = HLA-C0602 (Homo sapiens, UniProt P10321, A176E/A330V/C350S/L171W/L180W/L218V/M285V/M309V/M331V/N104K/P208H/Q277E/Q291P/R121W/S101N/S123Y/S297R/T329A/T363A/V319A/V328M); assay: Competitive peptide binding assay, CIR-C0602
HLA-C0801 = HLA-C0801 (Homo sapiens, UniProt P10321, A176T/A330V/A97T/C350S/D114A/D138N/D33Y/E201K/E299G/L171W/L218V/M285V/M309V/M331V/P208H/Q277E/Q291P/R59Q/S123Y/S140F/S297R/S48A/T329A/T363A/V319A/V328M); assay: Competitive peptide binding assay, CIR-C0801; conditions: HMy2.CIR-C0801 cells, reference Cy5-[…], class from inhibition at 5 and 15 μM, flow cytometry MFI; read-out: Binding affinity with HLA-C0801
Procedure: (§1) Then, competitive peptide binding assays were performed.

HLA-C0702 = HLA-C0702 (Homo sapiens, UniProt P10321); assay: Competitive peptide binding assay, CIR-C0702
HLA-C0701 = HLA-C0701 (Homo sapiens, UniProt P10321, K90N/S123Y); assay: Competitive peptide binding assay, CIR-C0701; conditions: HMy2.CIR-C0701 cells, reference Cy5-[…], class from inhibition at 5 and 15 μM, flow cytometry MFI; read-out: Binding affinity with HLA-C 0701
Procedure: as §1

HLA-C0401 = HLA-C0401 (Homo sapiens, UniProt P10321, A176E/A330V/A35S/A73E/C25G/C350S/D138N/D33S/E299K/L171W/L180R/L218V/M285V/M309V/M331V/N104K/P208H/Q277E/Q291P/R243W/R38W/S101N/S123F/S140F/S297R/S48A/T329A/T363A/V319A/V327M); assay: Competitive peptide binding assay, CIR-C0401; conditions: HMy2.CIR-C0401 cells, reference Cy5-[…], class from inhibition at 5 and 15 μM, flow cytometry MFI; read-out: Binding affinity with HLA-C0401
Procedure: as §1

HLA-C0302 = HLA-C0302 (Homo sapiens, UniProt P10321, A176E/A330V/A97T/C25G/C350S/D114A/D33Y/E197K/L127V/L171W/L218V/M285V/M309V/M331V/P208H/Q277E/Q291P/R243W/R45H/S123Y/S297R/S48A/T118I/T187L/T329A/T363A/V319A); assay: Competitive peptide binding assay, CIR-C0302; conditions: HMy2.CIR-C0302 cells, reference Cy5-[…], class from inhibition at 5 and 15 μM, flow cytometry MFI; read-out: Binding affinity with HLA-C0302
Procedure: as §1

HLA-C0102 = HLA-C0102 (Homo sapiens, UniProt P10321, A176E/A330V/A35S/A97T/C350S/D114A/D33F/L171W/L180R/L218V/M285V/M309V/M331V/P208H/Q277E/Q291P/R121W/R243W/R30K/S123C/S140Y/S297R/T329A/T363A/V272M/V319A); assay: Competitive peptide binding assay, CIR-C0102; conditions: HMy2.CIR-C0102 cells, reference Cy5-[…], class from inhibition at 5 and 15 μM, flow cytometry MFI; read-out: Binding affinity with HLA-C0102
Procedure: as §1

HLA-C0303 = HLA-C0303 (Homo sapiens, UniProt P10321, A176E/A330V/A97T/C25G/C350S/D114A/D33Y/E197K/G115R/L119I/L127V/L171W/L218V/M285V/M309V/M331V/P208H/Q277E/Q291P/R243W/R45H/S123Y/S140Y/S297R/S48A/T118I/T187L/T329A/T363A/V319A); assay: Competitive peptide binding assay, CIR-C0303; conditions: HMy2.CIR-C0303 cells, reference Cy5-[…], class from inhibition at 5 and 15 μM, flow cytometry MFI; read-out: Binding affinity with HLA-C0303
Procedure: as §1

HLA-C0304 = HLA-C0304 (Homo sapiens, UniProt P10321, A176E/A330V/A97T/C25G/C350S/D114A/D33Y/E197K/L119I/L127V/L171W/L218V/M285V/M309V/M331V/P208H/Q277E/Q291P/R243W/R45H/S123Y/S140Y/S297R/S48A/T118I/T187L/T329A/T363A/V319A); assay: Competitive peptide binding assay, CIR-C0304; conditions: HMy2.CIR-C0304 cells, reference Cy5-[…], class from inhibition at 5 and 15 μM, flow cytometry MFI; read-out: Binding affinity with HLA-C0304
Procedure: as §1

HLA-B5801 = HLA-B5801 (Homo sapiens, UniProt P01889, A329T/C349S/D201E/D98Y/E176V/E187L/E204Q/E69T/G107R/I218V/I90N/K202T/L105A/L119I/N104I/N87E/Q89R/Q94S/R106L/R155S/R180L/R86G/S101N/S121R/S35A/S48A/T118I/V127L/V306I/V36M/Y140S/Y91M); assay: Competitive peptide binding assay, CIR-B5801; conditions: HMy2.CIR-B5801 cells, reference Cy5-[…], class from inhibition at 5 and 15 μM, flow cytometry MFI; read-out: Binding affinity with HLA-B5801
Procedure: as §1

HLA-B1302 = HLA-B1302 (Homo sapiens, UniProt P01889, A65T/A93T/A95T/D138N/D201E/D98Y/E176V/E204Q/E69M/E70A/G107R/K202T/L105A/L119W/N104T/N87E/Q94N/R106L/R155S/R169L/R180L/S101N/S121T/S35A/S48T/V127L/V36M/Y140L/Y91S); assay: Competitive peptide binding assay, CIR-B1302; conditions: HMy2.CIR-B1302 cells, reference Cy5-MMWYWGPSL, class from inhibition at 5 and 15 μM, flow cytometry MFI; read-out: Binding affinity with HLA-B1302
Procedure: as §1

HLA-B5101 = HLA-B5101 (Homo sapiens, UniProt P01889, A329T/A93T/A95T/C349S/D138N/D201E/D98Y/E187L/E204Q/E69T/G107R/I218V/K202T/L105A/L119W/N104I/Q94N/R106L/R155S/R180L/S101N/S121T/S35A/S48A/V306I/V36M/Y195H/Y91F); assay: Competitive peptide binding assay, CIR-B5101; conditions: HMy2.CIR-B5101 cells, reference Cy5-[…], class from inhibition at 5 and 15 μM, flow cytometry MFI; read-out: Binding affinity with HLA-B5101
Procedure: as §1

HLA-B4801 = HLA-B4801 (Homo sapiens, UniProt P01889, A269T/A93T/A95T/D138N/D98Y/E176V/N87E/Q94N/R180L/T167S/W171L/Y91S); assay: Competitive peptide binding assay, CIR-B4801; conditions: HMy2.CIR-B4801 cells, reference Cy5-[…], class from inhibition at 5 and 15 μM, flow cytometry MFI; read-out: Binding affinity with HLA-B4801
Procedure: as §1

HLA-B4601 = HLA-B4601 (Homo sapiens, UniProt P01889, A329T/A93R/C349S/D201E/E100V/E187L/E204Q/E69M/E70A/I90K/K202T/N87E/R155S/R180W/S121R/S35A/S48A/V306I/V36M/Y140S); assay: Competitive peptide binding assay, CIR-B4601; conditions: HMy2.CIR-B4601 cells, reference Cy5-[…], class from inhibition at 5 and 15 μM, flow cytometry MFI; read-out: Binding affinity with HLA-B4601
Procedure: as §1

HLA-B1502 = HLA-B1502 (Homo sapiens, UniProt P01889, A329T/A93T/A95T/C349S/D201E/D98Y/E187L/E204Q/E69M/E70A/H137Y/K202T/L119I/Q94N/R155S/R180L/S121R/S35A/S48A/T118I/V306I/V36M/Y140S/Y91S); assay: Competitive peptide binding assay, CIR-B1502; conditions: HMy2.CIR-B1502 cells, reference Cy5-[…], class from inhibition at 5 and 15 μM, flow cytometry MFI; read-out: Binding affinity with HLA-B1502
Procedure: as §1

HLA-B3501 = HLA-B3501 (Homo sapiens, UniProt P01889, A329T/A93T/A95T/C349S/D201E/D98Y/E176V/E187L/E204Q/E69T/I218V/K202T/L119I/Q94N/R155S/R180L/S121R/S35A/S48A/T118I/V127L/V306I/V36M/Y140S/Y91F); assay: Competitive peptide binding assay, CIR-B3501; conditions: HMy2.CIR-B3501 cells, reference Cy5-[…], class from inhibition at 5 and 15 μM, flow cytometry MFI; read-out: Binding affinity with HLA-B3501
Procedure: as §1

HLA-B1501 = HLA-B1501 (Homo sapiens, UniProt P01889, A329T/A93T/A95T/C349S/D201E/D98Y/E187L/E204Q/E69M/E70A/K202T/N87E/Q94N/R155S/R180W/S121R/S35A/S48A/V306I/V36M/Y140S/Y91S); assay: Competitive peptide binding assay, CIR-B1501; conditions: HMy2.CIR-B1501 cells, reference Cy5-[…], class from inhibition at 5 and 15 μM, flow cytometry MFI; read-out: Binding affinity with HLA-B1501
Procedure: as §1

Question: With `CSCC[C@H](NC(=O)[C@H](CO)NC(=O)[C@H](CCCNC(=N)N)NC(=O)[C@@H](NC(=O)[C@H](CCCNC(=N)N)NC(=O)[C@H](C)NC(=O)[C@@H](N)Cc1ccccc1)[C@@H](C)O)C(=O)N[C@@H](Cc1c[nH]c2ccccc12)C(=O)N[C@@H](CO)C(=O)N[C@@H](Cc1ccccc1)C(=O)O` [Epitope M71] (H-FARTRSMWSF-OH; N-terminus and C-terminus assumed) as the compound, how does the IC50 (HLA-C0602) read?
Answer: The IC50 was greater than 15 µM.

Question: What about the IC50 (HLA-C0801) of the same compound?
Answer: The IC50 was greater than 15 µM.

Question: What about the IC50 (HLA-C0702) of the same compound?
Answer: Its IC50 is 5 to 15 µM.

Question: And the IC50 (HLA-C0701)?
Answer: Its IC50 is 5 to 15 µM.

Question: And the IC50 (HLA-C0401)?
Answer: Its IC50 is greater than 15 µM.

Question: What about the IC50 (HLA-C0302) of the same compound?
Answer: The IC50 was less than 5 µM.

Question: How did the IC50 (HLA-C0602) turn out when `CC[C@H](C)[C@H](N)C(=O)N[C@@H](C)C(=O)N[C@@H](CCSC)C(=O)N[C@@H](C)C(=O)N[C@@H](CS)C(=O)N[C@@H](CC(C)C)C(=O)N[C@H](C(=O)NCC(=O)N[C@@H](CC(C)C)C(=O)O)C(C)C` [Epitope M44] (H-IAMACLVGL-OH; N-terminus and C-terminus assumed) was run?
Answer: The IC50 was greater than 15 µM.

Question: And the IC50 (HLA-C0801)?
Answer: Its IC50 is greater than 15 µM.

Question: And the IC50 (HLA-C0102)?
Answer: The IC50 was less than 5 µM.

Question: What about the IC50 (HLA-C0702) of the same compound?
Answer: The IC50 was greater than 15 µM.

Question: And the IC50 (HLA-C0303)?
Answer: Its IC50 is greater than 15 µM.

Question: And the IC50 (HLA-C0701)?
Answer: The IC50 was greater than 15 µM.

Question: What about the IC50 (HLA-C0302) of the same compound?
Answer: The IC50 was less than 5 µM.

Question: And the IC50 (HLA-C0304)?
Answer: Its IC50 is greater than 15 µM.

Question: Which results are given for `CC(C)C[C@H](NC(=O)[C@H](CC(=O)O)NC(=O)[C@@H](NC(=O)[C@H](CC(=O)O)NC(=O)[C@@H](NC(=O)[C@H](Cc1c[nH]cn1)NC(=O)[C@H](CO)NC(=O)[C@H](CCC(=O)O)NC(=O)[C@H](C)N)C(C)C)[C@@H](C)O)C(=O)O` [Epitope Y198] (H-AESHVDTDL-OH; N-terminus and C-terminus assumed)?
Answer: IC50 (HLA-B5801): > 15 µM; IC50 (HLA-B1302): 5 to 15 µM; IC50 (HLA-B5101): > 15 µM; IC50 (HLA-B4801): > 15 µM; IC50 (HLA-B4601): > 15 µM; IC50 (HLA-B1502): > 15 µM; IC50 (HLA-B3501): > 15 µM; IC50 (HLA-B1501): > 15 µM
